# Values quoted from earlier work, collected in patent publication US20120276003A1, “COMPOUND CONTAINING AN OXYGEN-15, PREPARATION AND USE THEREOF, AND COMPOSITION COMPRISING THEREOF” (Beijing Top Grade Medical Equipment Co., Ltd., priority 2011, published 2012).
# Details: perfusion imaging agent; stated 'academically'
smiles,measurement,value
[15OH2] [^15O-water],one-time through uptake rate,~100%
